Earlier results on one molecule are cited in patent US20220296868A1, “INTRACRANIAL DELIVERY OF MEDICINAL SOLUTION” (InCube Labs, LLC, priority 2019, published 2022).

For series [1] the following is noted: hydrochloride salt of topotecan.
Series [2] has as its system white blood cell count. As to conditions: in vivo.
The subject of series [3] is plasma proteins.
Test in series [4]: not given
This is another data set of the same source.

For series [5] the following is noted: in vitro, human liver microsomes. (In general: Microsomes from liver hold many membrane-bound enzymes, among them those of drug oxidation.)

Take `CC[C@@]1(O)C(=O)OCc2c1cc1n(c2=O)Cc2cc3c(CN(C)C)c(O)ccc3nc2-1` [topotecan]: the solubility in water result in series [1] is given as “freely soluble”. In series [2], the dose-limiting toxicity entry was “leukopenia”. Under “N-demethylated metabolite, total topotecan and topotecan lactone, following IV administration”, the “mean metabolite:parent AUC ratio” value is listed as “about 3%”. Besides, where the note is “cancer subjects, 0.5 to 1.5 mg/m^2 as 30-minute IV infusion”, the “total exposure (AUC) versus dose” value is “approximately dose-proportional”. Besides, the “binding to plasma proteins” value in series [3] is on record as “about 35%”. Further, the lactone form entry in series [4] (pH≤4) is “exclusively present”. For the same molecule, the ring-opened hydroxy-acid form entry in series [4] (physiologic pH) is reported as “predominates”. In addition, the metabolism result in series [5] is given as “metabolized to an Ndemethylated metabolite”.
